This note sets out measurements from patent US7687664B2, “Carboxylic acid derivative, a salt thereof or an ester of them, and medicament comprising it” (Eisai R&D Management Co., Ltd., priority 2001, dated 2010).

Usually pEC50 stands for the EC50 on a negative log10 scale, so that one unit is a factor of ten. Read a high pEC50 as a small EC50.

pEC50: −log10 of the molar value.

What all share (assay): Transcriptional activity, GAL4-PPAR LBD chimera / PLAP reporter in CV-1 cells
Common to all, as to type: cell-based

One experiment has as its target T1, human PPAR α (Homo sapiens, UniProt Q07869).
T1 construct: human PPAR 167-468 (PPAR α); expressed in transfected cells; host or cells: CV-1 (ATCC CCL-70)
T1 sequence (Q07869 167-468): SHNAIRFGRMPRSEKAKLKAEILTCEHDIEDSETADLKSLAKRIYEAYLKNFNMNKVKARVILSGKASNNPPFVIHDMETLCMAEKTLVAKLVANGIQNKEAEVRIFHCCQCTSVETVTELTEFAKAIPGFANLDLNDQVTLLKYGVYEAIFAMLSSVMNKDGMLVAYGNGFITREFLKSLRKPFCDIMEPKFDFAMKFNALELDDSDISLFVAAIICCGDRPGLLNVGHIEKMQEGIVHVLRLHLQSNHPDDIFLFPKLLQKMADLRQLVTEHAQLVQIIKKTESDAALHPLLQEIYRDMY
Conditions: GAL4-PPARα LBD, PLAP activity 24 hours after addition. From the text: (§1) A GAL4-PPAR LBD chimera expression vector was constructed by ligating human PPAR 167-468 (PPAR α), 138-440 (NUC-1) and 174-475 (PPARγ) amino acid regions (LBD: Ligand Binding Domain) to a yeast transcriptional factor GAL4 1-147 amino acid region. As the reporter gene, PLAP (Placental Alkaline Phosphatase) was used, and this was ligated downstream of a TK promoter containing a 5-copy GAL4 DNA binding element to construct a vector. As host cells, CV-1 (ATCC CCL-70) was used. That is, CV-1 cells were spread at a density of 5×10^5 cells on a 35-mm dish and cultured in 10% FCS/DMEM for 24 hours, and using FuGENE 6 transfection reagent, the cells were co-transfected with the GAL4-PPAR LBD expression vector and GAL4 DBD-TK-PLAP expression vector. 24 hours after this transfection, the cells were spread again on a 96-well plate at a density of 1×10^4/well and further cultured for 24 hours. After 24 hours, the medium was exchanged with DMEM containing 10% FCS, which was previously treated at 65° C. for inactivating intrinsic alkaline phosphatase, and a test compound was added at an arbitrary concentration. The transcriptional activity was determined in terms of PLAP activity secreted 24 hours after addition of the compound, to calculate EC50.
(§2) The PLAP activity was determined after adding 50 μl assay buffer and 50 μl chemoluminescence substrate to 10 μl culture supernatant and incubating the mixture at room temperature for 1 hour. In this way, transcription activities with respect to PPARα, PPARβ(δ) and PPARγ could be determined.

In a further experiment the target is T2, human PPAR γ (Homo sapiens, UniProt P37231).
T2 construct: 174-475 (PPARγ); expressed in transfected cells; host or cells: CV-1 (ATCC CCL-70)
T2 sequence (P37231 174-475 isoform P37231-2): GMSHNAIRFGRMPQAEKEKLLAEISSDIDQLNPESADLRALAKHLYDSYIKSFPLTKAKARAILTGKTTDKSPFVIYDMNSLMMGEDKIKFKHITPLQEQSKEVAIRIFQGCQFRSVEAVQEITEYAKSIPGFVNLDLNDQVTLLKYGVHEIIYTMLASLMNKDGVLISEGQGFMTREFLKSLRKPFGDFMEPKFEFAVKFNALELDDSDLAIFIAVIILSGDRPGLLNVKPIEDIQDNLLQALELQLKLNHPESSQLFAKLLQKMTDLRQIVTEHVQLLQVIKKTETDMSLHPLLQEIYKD
Conditions: GAL4-PPARγ LBD, PLAP activity 24 hours after addition.
Description: as §1, §2

Experiment [1] deals with T3, human PPAR β (NUC-1, PPARβ(δ)) (Homo sapiens, UniProt Q03181).
T3 construct: 138-440 (NUC-1); expressed in transfected cells; host or cells: CV-1 (ATCC CCL-70)
T3 sequence (Q03181 138-440): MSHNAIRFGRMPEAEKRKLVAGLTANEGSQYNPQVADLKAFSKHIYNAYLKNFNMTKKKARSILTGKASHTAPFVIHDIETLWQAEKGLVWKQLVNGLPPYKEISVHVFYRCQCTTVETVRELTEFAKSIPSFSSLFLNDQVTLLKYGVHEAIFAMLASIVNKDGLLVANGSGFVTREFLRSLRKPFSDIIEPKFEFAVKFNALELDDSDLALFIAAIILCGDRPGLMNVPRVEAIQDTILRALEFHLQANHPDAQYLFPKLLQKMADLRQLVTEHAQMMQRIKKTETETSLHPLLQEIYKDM
Conditions: GAL4-PPARβ(δ) (NUC-1) LBD, PLAP activity 24 hours after addition.
Description: as §1, §2

Regarding `COc1ccc(-c2cccc(CC(=O)O)c2)cc1OCC(O)COc1ccc(C(C)(C)C)cc1` (stereo not shown) [Ex 365, {3′-[2-Hydroxy-3-(4-t-butylphenoxy)propoxy]-4′-methoxybiphenyl-3-yl}acetic Acid], the pEC50 was 5.81 on human PPAR α, 6.82 at human PPAR γ and 5.94 in experiment [1].
Take `CCCOc1ccc(C(=O)NCc2cc(-c3cccc(/C=C(\CC)C(=O)O)c3)ccc2OC)c(Cl)c1` [Example 141, (E)-2-Ethyl-3-[3-(3-{[(4-propoxy-2-chlorobenzoyl)amino]methyl}-4-methoxyphenyl)phenyl]-2-propenoic Acid]: the pEC50 on human PPAR γ is 7.51.
Regarding `COc1ccc(-c2cccc(CC(=O)O)c2)cc1OCC#Cc1cccc(C(F)(F)F)c1` [Ex 375, {3′-[3-(3-Trifluoromethylphenyl)-2-propynyloxy]-4′-methoxybiphenyl-3-yl}acetic Acid], the values for the pEC50 (at human PPAR α; on human PPAR γ; in experiment [1]) were 6.19, 5.89 and 6.99, respectively.
The like results for `CCCOc1ccc(-c2cc(C(=O)O)ccc2Cl)cc1CNC(=O)c1ccc(C(F)(F)F)cc1F` [Example 199, 3-(3-{[(4-Trifluoromethyl-2-fluorobenzoyl)amino]methyl}-4-propoxyphenyl)-4-chlorobenzoic Acid] were, in that order, 6.27, 6.87 and 9.46.
Consider `COc1ccc(-c2cccc(CC(=O)O)c2)cc1CCOC(=O)Nc1ccc(C(F)(F)F)cc1` [Example 267, 2-[5-(3-{2-[(4-Trifluoromethylanilinocarbonyl)oxy]ethyl}-4-methoxyphenyl)-3-phenyl]acetic Acid], for which the figures for the negative-log EC50 (pEC50) (at human PPAR α; on human PPAR γ; in experiment [1]) were 6.21, 6.33 and 7.74, respectively.
On to `COc1ccc(-c2cccc(CC(=O)O)c2)cc1/C(C)=N/OCc1ccc(C(F)(F)F)cc1` [Example 361, {4′-Methoxy-3′-[1-(4-trifluoromethylbenzyloxyimino)ethyl]-biphenyl-3-yl}acetic Acid], for which the pEC50 was 6.14 at human PPAR α, 6.18 on human PPAR γ and over 10.00 in experiment [1].
Take `CCOc1ccc(-c2cccc(CC(=O)O)c2)cc1CNC(=O)OCc1ccc(CC)cc1` [Example 302, {4′-Ethoxy-3′-[(4-ethylbenzyloxycarbonylamino)methyl]-biphenyl-3-yl}acetic Acid]: the pEC50 on human PPAR α was 8.52; at human PPAR γ, 6.15; in experiment [1], 7.13.
The like results for `COc1ccc(-c2ccc(C)c(C(=O)O)c2)cc1CNC(=O)c1ccc(Cl)cc1Cl` [Example 21, 3-(3-{[(2,4-Dichlorobenzoyl)amino]methyl}-4-methoxyphenyl)-6-methylbenzoic Acid] were, in that order, 7.35, 7.37 and 6.94.
In the same order, the values of `COc1ccc(-c2cccc(CC(=O)O)c2)cc1C#CCOc1ccc(C(F)(F)F)cc1` [Example 351, {4′-Methoxy-3′-[3-(4-trifluoromethylphenoxy)1-propynyl]biphenyl-3-yl}acetic Acid] are 5.74, 5.85 and 6.80.
`COc1ccc(-c2cccc(CC(=O)O)c2)cc1CCOc1ccc(Cl)cc1Cl` [Example 263, 3-{3-[2-(2,4-Dichlorophenoxy)ethyl]-4-methoxyphenyl}phenylacetic Acid]: the negative logarithm of the EC50 (pEC50) on human PPAR γ was 5.94; in experiment [1], 9.32.
The compound `Cc1ccc(-c2ccccc2CNC(=O)c2sc(-c3ccc(Cl)cc3)nc2C)cc1C(=O)O` [Example 257, 3-(2-[([2-(4-Chlorophenyl)-4-methyl-1,3-thiazol-5-yl]carbonylamino)methyl]phenyl)-6-methylbenzoic Acid] gave a pEC50 on human PPAR α of 7.54.
As for `COc1ccc(-c2cccc(CC(=O)O)c2)cc1CNC(=O)c1ccc(C(F)(F)F)cc1F` [Example 220, 3-(3-{[(4-Trifluoromethyl-2-fluorobenzoyl)amino]methyl}-4-methoxyphenyl)-3-phenylacetic Acid], the negative-log EC50 (pEC50) was 6.12 on human PPAR α, 7.24 at human PPAR γ and 9.30 in experiment [1].
